Experiments:
IRE1α = molecular target: T1, IRE1α (Homo sapiens, UniProt O75460); assay: Biochemical assay: inhibition of RNase activity of IRE1α; conditions: enzyme 0.325 nM, substrate 100 nM, 20 minutes
T1 construct: purchased Signal Chem E31-11G
Description: Biochemical Assay: Inhibition of RNase Activity of IRE1α
The RNase reactions were performed in 384 well black ProxiPlate-384 Plus plates (PERKIN Elmer) using 50 mM Tris assay buffer with 0.5 mM MgCl2, 10 mM KCl, 0.03% Tween, 2 mM DTT and 1% DMSO. Test compounds were prepared on the day of assay and dispensed using D300 digital dispenser as a 10-point ½ log dilution series in duplicate, normalized to a final DMSO concentration of […]. Test compounds were pre-incubated for 30 min at room temperature with IRE1α kinase (E31-11G from Signal Chem) in 2.5 μL of assay buffer. Then 2.5 μl of assay buffer containing substrate (5′ Alexa Fluor 647-rCrArU rGrUrC rCrGrC rArGrC rGrCrArUrG-Iowa Black RQ quencher 3′) added, giving a final concentration of enzyme of 0.325 nM and of substrate of 100 nM. After 20 minutes incubation at room temperature the reactions were stopped by added 5 μL of 5M urea, incubated at room temperature for 10 minutes and fluorescence measured on a plate reader (EnVision, PerkinElmer). IC50 values calculated by fitting a sigmoidal curve to percent inhibition of control versus compound concentration.

[1] = tested on: ARPE-19 cells stably expressing XBP1 (a.a. 1-376); assay: Cellular XBP1 splicing assay (NanoLuc luciferase, thapsigargin); type: cell-based; conditions: thapsigargin 150 nM
Description: Cellular XBP1 Splicing Assay
ARPE-19 cells stably expressing XBP1 (a.a. 1-376) with nano-luciferase gene sequence linked so it is in frame when XBP1 is spliced, were cultured in F12 media, 10% FBS, 0.044% sodium bicarbonate, 150 μg/ml hygromycin B and seeded for assays at 5,000 cells in 384 well plates in culture media without hygromycin B and incubated at 37° C./5% CO2. After overnight incubation test compounds were added to the cell plate in a 10-point ½ log dilution series in duplicate (final DMSO concentration 0.117%). After further incubation of 30 minutes thapsigargin was added (final concentration 150 nM) and then another 4 hour incubation. A NanoLuc luciferase assay (Promega) was used according to the manufacturer's instructions to detect the luciferase and luminescence measured on a luminometer (EnVision, PerkinElmer). IC50 values calculated by fitting a sigmoidal curve to percent inhibition of control of compound concentration.

T1 sequence (O75460 468-977 limits assumed): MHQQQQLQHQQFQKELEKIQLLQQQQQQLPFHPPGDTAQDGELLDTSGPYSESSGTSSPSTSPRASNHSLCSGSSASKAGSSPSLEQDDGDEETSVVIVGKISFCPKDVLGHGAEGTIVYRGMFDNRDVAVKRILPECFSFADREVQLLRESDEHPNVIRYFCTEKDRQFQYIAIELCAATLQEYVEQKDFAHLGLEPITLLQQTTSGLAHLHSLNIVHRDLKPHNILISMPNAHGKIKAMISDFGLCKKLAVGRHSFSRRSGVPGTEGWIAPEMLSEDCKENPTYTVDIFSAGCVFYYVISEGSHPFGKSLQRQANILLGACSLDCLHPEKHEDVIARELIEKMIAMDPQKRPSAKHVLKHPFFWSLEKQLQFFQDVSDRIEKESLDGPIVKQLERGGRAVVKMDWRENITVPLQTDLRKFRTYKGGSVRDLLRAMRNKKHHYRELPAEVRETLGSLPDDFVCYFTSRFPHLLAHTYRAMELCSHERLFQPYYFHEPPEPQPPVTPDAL

SMILES | IC50 (IRE1α) | IC50 ([1]; Homo sapiens, ARPE-19, 4 h) | IC50 ([1]; 4 hour)
CC(C)n1nc(-c2cc(F)c(NS(=O)(=O)c3ccccc3Cl)cc2F)c2c(N)ncc(C3=CCC(NC4COC4)CC3)c21 (racemic) [racemic mixture of B10 & B11, N-(4-(4-amino-1-isopropyl-7-(4-(oxetan-3-ylamino)cyclohex-1-en-1-yl)-1H-pyrazolo[4,3-c]pyridin-3-yl)-2,5-difluorophenyl)-2-chlorobenzenesulfonamide] | 60 nM | 160 nM | –
CC(C)n1nc(-c2ccc(NS(=O)(=O)c3cc(Cl)ccc3F)c(F)c2)c2c(N)ncc(C3=CCC(NC4COC4)CC3)c21 (racemic) [racemic mixture of B14 & B15, N-(4-(4-amino-1-isopropyl-7-(4-(oxetan-3-ylamino)cyclohex-1-en-1-yl)-1H-pyrazolo[4,3-c]pyridin-3-yl)-2-fluorophenyl)-5-chloro-2-fluorobenzenesulfonamide] | 60 nM | 3.3 nM | –
Cc1ccc(F)c(S(=O)(=O)Nc2ccc(-c3nn(C(C)C)c4c(C5=CCC(NC6COC6)CC5)cnc(N)c34)cc2F)c1 (racemic) [racemic mixture of B16 & B17, N-(4-(4-amino-1-isopropyl-7-(4-(oxetan-3-ylamino)cyclohex-1-en-1-yl)-1H-pyrazolo[4,3-c]pyridin-3-yl)-2-fluorophenyl)-2-fluoro-5-methylbenzenesulfonamide] | 13 nM | 94 nM | –
CC(C)n1nc(-c2ccc(NS(=O)(=O)c3ccccc3Cl)c(F)c2)c2c(N)ncc(C3=CCC(NC4COC4)CC3)c21 (racemic) [racemic mixture of B56 & B57, N-(4-(4-amino-1-isopropyl-7-(4-(oxetan-3-ylamino)cyclohex-1-en-1-yl)-1H-pyrazolo[4,3-c]pyridin-3-yl)-2-fluorophenyl)-2-chlorobenzenesulfonamide] | 26 nM | 52 nM | –
CC(C)n1nc(-c2ccc(NS(=O)(=O)c3ccccc3F)c(F)c2)c2c(N)ncc(C3=CCC(NC4COC4)CC3)c21 (racemic) [racemic mixture of B58 & B59, N-(4-(4-amino-1-isopropyl-7-(4-(oxetan-3-ylamino)cyclohex-1-en-1-yl)-1H-pyrazolo[4,3-c]pyridin-3-yl)-2-fluorophenyl)-2-fluorobenzenesulfonamide] | 61 nM | 92 nM | –
CCn1nc(-c2ccc(NS(=O)(=O)c3ccccc3Cl)c(F)c2)c2c(N)ncc(C3=CCC(NC4COC4)CC3)c21 (racemic) [racemic mixture of B61 & B62, N-(4-(4-amino-1-ethyl-7-(4-(oxetan-3-ylamino)cyclohex-1-en-1-yl)-1H-pyrazolo[4,3-c]pyridin-3-yl)-2-fluorophenyl)-2-chlorobenzenesulfonamide] | 40 nM | 100 nM | –
CC(C)n1nc(-c2ccc(NS(=O)(=O)Cc3ccccc3F)c(F)c2)c2c(N)ncc(C3=CCC(NC4COC4)CC3)c21 (single isomer, unassigned) [Compound B1, N-(4-(4-amino-1-isopropyl-7-(4-(oxetan-3-ylamino)cyclohex-1-en-1-yl)-1H-pyrazolo[4,3-c]pyridin-3-yl)-2-fluorophenyl)-1-(2-fluorophenyl)methanesulfonamide] | 2.4 nM | – | 30 nM
Nc1ncc(C2=CCC(NC3COC3)CC2)c2c1c(-c1ccc(NS(=O)(=O)Cc3ccccc3F)c(F)c1)nn2C1CC1 (single isomer, unassigned) [Compound B20, N-(4-(4-amino-1-cyclopropyl-7-(4-(oxetan-3-ylamino)cyclohex-1-en-1-yl)-1H-pyrazolo[4,3-c]pyridin-3-yl)-2-fluorophenyl)-1-(2-fluorophenyl)methanesulfonamide] | – | – | 38 nM
Nc1ncc(C2=CCC(NC3COC3)CC2)c2c1c(-c1ccc(NS(=O)(=O)Cc3ccccc3F)c(F)c1)nn2C1CC1 (single isomer, unassigned) [Compound B21, N-(4-(4-amino-1-cyclopropyl-7-(4-(oxetan-3-ylamino)cyclohex-1-en-1-yl)-1H-pyrazolo[4,3-c]pyridin-3-yl)-2-fluorophenyl)-1-(2-fluorophenyl)methanesulfonamide] | – | – | 11 nM
CCn1nc(-c2ccc(NS(=O)(=O)Cc3ccccc3Cl)cc2)c2c(N)ncc(C3=CCC(NC4COC4)CC3)c21 (single isomer, unassigned) [Compound B25, N-(4-(4-amino-1-ethyl-7-(4-(oxetan-3-ylamino)cyclohex-1-en-1-yl)-1H-pyrazolo[4,3-c]pyridin-3-yl)phenyl)-1-(2-chlorophenyl)methanesulfonamide] | – | – | 170 nM
CCn1nc(-c2ccc(NS(=O)(=O)c3cc(Cl)ccc3F)c(F)c2)c2c(N)ncc(C3=CCC(NC4COC4)CC3)c21 (single isomer, unassigned) [Compound B39, N-(4-(4-amino-1-ethyl-7-(4-(oxetan-3-ylamino)cyclohex-1-en-1-yl)-1H-pyrazolo[4,3-c]pyridin-3-yl)-2-fluorophenyl)-5-chloro-2-fluorobenzenesulfonamide] | – | – | 220 nM
CC(C)n1nc(-c2ccc(NS(=O)(=O)c3ccccc3Cl)c(F)c2)c2c(N)ncc(C3=CCC(NC4COC4)CC3)c21 (single isomer, unassigned) [Compound B56, N-(4-(4-amino-1-isopropyl-7-(4-(oxetan-3-ylamino)cyclohex-1-en-1-yl)-1H-pyrazolo[4,3-c]pyridin-3-yl)-2-fluorophenyl)-2-chlorobenzenesulfonamide] | – | – | 200 nM
CC(C)n1nc(-c2ccc(NS(=O)(=O)c3ccccc3Cl)c(F)c2)c2c(N)ncc(C3=CCC(NC4COC4)CC3)c21 (single isomer, unassigned) [Compound B57, N-(4-(4-amino-1-isopropyl-7-(4-(oxetan-3-ylamino)cyclohex-1-en-1-yl)-1H-pyrazolo[4,3-c]pyridin-3-yl)-2-fluorophenyl)-2-chlorobenzenesulfonamide] | – | – | 20 nM
COCCN[C@H]1CC[C@H](c2cnc(N)c3c(-c4cc(F)c(NS(=O)(=O)c5cccc(F)c5)cc4F)nn(C(C)C)c32)CC1 [Compound A33, N-(4-(4-amino-1-isopropyl-7-((1r,4r)-4-((2-methoxyethyl)amino)cyclohexyl)-1H-pyrazolo[4,3-c]pyridin-3-yl)-2,5-difluorophenyl)-3-fluorobenzenesulfonamide] | – | 49 nM | –
COCCN[C@H]1CC[C@H](c2cnc(N)c3c(-c4cc(F)c(NS(=O)(=O)c5cc(OC(F)(F)F)ccc5F)cc4F)nn(C(C)C)c32)CC1 [Compound A59, N-(4-(4-amino-1-isopropyl-7-((1r,4r)-4-((2-methoxyethyl)amino)cyclohexyl)-1H-pyrazolo[4,3-c]pyridin-3-yl)-2,5-difluorophenyl)-2-fluoro-5-(trifluoromethoxy)benzenesulfonamide] | – | 44 nM | –
CCCOc1ccc(F)c(S(=O)(=O)Nc2cc(F)c(-c3nn(C(C)C)c4c3c(N)ncc4[C@H]3CC[C@H](NCCOC)CC3)cc2F)c1 [Compound A60, N-(4-(4-amino-1-isopropyl-7-((1r,4r)-4-((2-methoxyethyl)amino)cyclohexyl)-1H-pyrazolo[4,3-c]pyridin-3-yl)-2,5-difluorophenyl)-2-fluoro-5-propoxybenzenesulfonamide] | – | 16 nM | –
COCCN[C@H]1CC[C@H](c2cnc(N)c3c(-c4cc(F)c(NS(=O)(=O)c5cc(Cl)ccc5Cl)cc4F)nn(C(C)C)c32)CC1 [Compound A61, N-(4-(4-amino-1-isopropyl-7-((1r,4r)-4-((2-methoxyethyl)amino)cyclohexyl)-1H-pyrazolo[4,3-c]pyridin-3-yl)-2,5-difluorophenyl)-2,5-dichlorobenzenesulfonamide] | – | 5 nM | –
CCc1ccc(Cl)c(S(=O)(=O)Nc2cc(F)c(-c3nn(C(C)C)c4c3c(N)ncc4[C@H]3CC[C@H](NCCOC)CC3)cc2F)c1 [Compound A62, N-(4-(4-amino-1-isopropyl-7-((1r,4r)-4-((2-methoxyethyl)amino)cyclohexyl)-1H-pyrazolo[4,3-c]pyridin-3-yl)-2,5-difluorophenyl)-2chloro-5-ethylbenzenesulfonamide] | – | 6 nM | –
CC(F)CN[C@H]1CC[C@H](c2cnc(N)c3c(-c4cc(F)c(NS(=O)(=O)c5ccccc5F)cc4F)nn(C(C)C)c32)CC1 (some centres unmarked) [Compound A63, N-(4-(4-amino-7-((1r,4r)-4-((2-fluoropropyl)amino)cyclohexyl)-1-isopropyl-1H-pyrazolo[4,3-c]pyridin-3-yl)-2,5-difluorophenyl)-2-fluorobenzenesulfonamide] | – | 13 nM | –

Reference: patent publication US20220153734A1, “Pyrazolopyridine Compounds For IRE1 Inhibition” (Optikira, LLC, priority 2019, published 2022)
